Measured values: patent publication US20250059220A1, “SUBSTITUTED BENZOTHIOPHENE DERIVATIVES AND METHODS OF USE THEREOF” (Merck Sharp & Dohme LLC, priority 2021, published 2025)

Legend:
human PTPN2 (1-387) = human PTPN2 (1-387) (Homo sapiens (Human), UniProt P17706); assay: Human PTPN2 Biochemical Assay; conditions: DiFMUP substrate
Method: Human PTPN2 Biochemical Assay
Test compounds were dissolved in DMSO, and 10-point serial 3-fold dilution series in DMSO were prepared in Echo Qualified 384-well Polypropylene Microplates (Labcyte, San Jose, CA) (top concentration 50 µM). Assay plates (384-well low volume black plates; Corning #3820, Corning, NY) were prepared by dispensing 50 nL of test compound, and DMSO (for high and low controls) by ECHO acoustic dispenser (Labcyte, San Jose CA). This was followed by addition of 5 μL of 0.2 nM human PTPN2 (1-387) solution (prepared in the assay buffer, 50 mM Tris pH 7.4, 150 mM NaCl, 0.01% Tween20, 0.5 mM dithiothreitol) to all wells except the low control. 5 μl of assay buffer was added into the low control, then the plate was incubated for 30 minutes at room temperature. Subsequently, 5 μl of 100 µM DiFMUP (6,8-difluoro-4-methylumbelliferyl phosphate) solution (prepared in assay buffer from 10 mM stock in DMSO) was added to the assay plate and incubated for 1 hour at room temperature. For detection, assay plates were read on SpectraMax Microplate Reader (Molecular Devices), with Excitation wavelength=360 nm and Emission wavelength=460 nm. Test compound effects were normalized to the window defined by the controls, DMSO/buffer, and DMSO/50 pM human PTPN2. Calculated % effects were fit using a 4-parameter algorithm, and EC50 was reported.

human PTPN1 (1-435) = human PTPN1 (1-435) (Homo sapiens (Human), UniProt P18031); assay: Human PTPN1 Biochemical Assay; conditions: DiFMUP substrate, read-out: PTP1B IC50
Method: Human PTPN1 Biochemical Assay
Test compounds were dissolved in DMSO, and 10-point serial 3-fold dilution series in DMSO were prepared in Echo Qualified 384-well Polypropylene Microplates (Labcyte, San Jose, CA) (top concentration 50 µM). […] 5 μl of assay buffer was added into the low control. The plate was incubated for 30 minutes at room temperature. Subsequently, 5 μl of 100 µM DiFMUP (6,8-difluoro-4-methylumbelliferyl phosphate) solution (prepared in assay buffer from 10 mM stock in DMSO) was added to the assay plate and incubated for 1 hour at room temperature. For detection, assay plates were read on SpectraMax Microplate Reader (Molecular Devices), with Excitation wavelength=360 nm and Emission wavelength=460 nm. […] Calculated % effects were fit using a 4-parameter algorithm, and EC50 was reported.

human PTPN1 (1-435), sequence (P18031 whole entry): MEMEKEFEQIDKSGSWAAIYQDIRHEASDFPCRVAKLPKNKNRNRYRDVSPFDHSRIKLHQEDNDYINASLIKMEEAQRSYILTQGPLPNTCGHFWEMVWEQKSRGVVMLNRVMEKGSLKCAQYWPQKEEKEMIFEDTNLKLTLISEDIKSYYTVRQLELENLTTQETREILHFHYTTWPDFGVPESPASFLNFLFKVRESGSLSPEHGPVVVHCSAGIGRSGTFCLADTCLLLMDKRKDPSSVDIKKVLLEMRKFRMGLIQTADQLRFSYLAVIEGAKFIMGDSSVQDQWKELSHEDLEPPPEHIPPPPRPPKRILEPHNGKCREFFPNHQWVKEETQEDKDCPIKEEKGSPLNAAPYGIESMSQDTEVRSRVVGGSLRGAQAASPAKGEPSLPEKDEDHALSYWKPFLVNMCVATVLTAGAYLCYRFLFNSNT
human PTPN2 (1-387), sequence (P17706 other isoform, or with tags, fused parts or gaps): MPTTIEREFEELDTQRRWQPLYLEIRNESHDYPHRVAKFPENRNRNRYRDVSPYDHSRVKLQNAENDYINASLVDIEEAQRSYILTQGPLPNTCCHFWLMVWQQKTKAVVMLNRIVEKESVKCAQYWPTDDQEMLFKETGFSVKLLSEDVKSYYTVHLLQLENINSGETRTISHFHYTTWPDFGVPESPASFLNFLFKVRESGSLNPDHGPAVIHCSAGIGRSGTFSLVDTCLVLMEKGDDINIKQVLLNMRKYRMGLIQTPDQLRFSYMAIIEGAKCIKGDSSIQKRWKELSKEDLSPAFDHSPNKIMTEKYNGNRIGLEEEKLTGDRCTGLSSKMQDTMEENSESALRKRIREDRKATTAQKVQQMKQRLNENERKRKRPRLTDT

Compound `CS(=O)(=O)N1CC2(CC(NC(=O)c3ccc4sc(C(F)(F)P(=O)(O)O)c(Br)c4c3)C2)C1` [Compound 48] has an IC50 (human PTPN2 (1-387)) of 7.15 µM and an IC50 (human PTPN1 (1-435)) of 5.53 µM.
`O=C(NCC(F)(F)F)c1ccc2sc(C(F)(F)P(=O)(O)O)c(Br)c2c1` [Compound 49] gave an IC50 (human PTPN2 (1-387)) of 5.09 µM and an IC50 (human PTPN1 (1-435)) of 4.15 µM.
For `Cc1nn(C)cc1CNC(=O)c1ccc2sc(C(F)(F)P(=O)(O)O)c(Br)c2c1` [Compound 50], the IC50 (human PTPN2 (1-387)) was 7.49 µM and the IC50 (human PTPN1 (1-435)) was 6.39 µM.
Compound `O=C(NCc1nnc2n1CCC2)c1ccc2sc(C(F)(F)P(=O)(O)O)c(Br)c2c1` [Compound 51] has an IC50 (human PTPN2 (1-387)) of 1.35 µM and an IC50 (human PTPN1 (1-435)) of 1.11 µM.
`O=C(N[C@H]1CC[C@H](C(F)(F)F)CC1)c1ccc2sc(C(F)(F)P(=O)(O)O)c(Br)c2c1` [Compound 52] gave an IC50 (human PTPN2 (1-387)) of 6.82 µM and an IC50 (human PTPN1 (1-435)) of 5.68 µM.
Compound `O=C(NCCC1CCCCC1)c1ccc2sc(C(F)(F)P(=O)(O)O)c(Br)c2c1` [Compound 53] has an IC50 (human PTPN2 (1-387)) of 4.11 µM and an IC50 (human PTPN1 (1-435)) of 3.24 µM.
Work on `O=C(N[C@H]1CC[C@@H](C(F)(F)F)CC1)c1ccc2sc(C(F)(F)P(=O)(O)O)c(Br)c2c1` [Compound 54] yielded an IC50 (human PTPN2 (1-387)) of 6.75 µM and an IC50 (human PTPN1 (1-435)) of 5.03 µM.
With `CC(C)CNC(=O)c1ccc2sc(C(F)(F)P(=O)(O)O)c(Br)c2c1` [Compound 55] the IC50 (human PTPN2 (1-387)) was 9.7 µM and the IC50 (human PTPN1 (1-435)) was 7.62 µM.
Work on `O=C(NC1CCS(=O)(=O)C1)c1ccc2sc(C(F)(F)P(=O)(O)O)c(Br)c2c1` (stereo not shown) [Compound 56] yielded an IC50 (human PTPN2 (1-387)) of 3.93 µM and an IC50 (human PTPN1 (1-435)) of 2.88 µM.
`O=C(N[C@@H]1[C@@H]2COC[C@@H]21)c1ccc2sc(C(F)(F)P(=O)(O)O)c(Br)c2c1` [Compound 57] showed an IC50 (human PTPN2 (1-387)) of 5.09 µM and an IC50 (human PTPN1 (1-435)) of 4.33 µM.
For `CN1CCCC(NC(=O)c2ccc3sc(C(F)(F)P(=O)(O)O)c(Br)c3c2)C1` (stereo not shown) [Compound 58], the IC50 (human PTPN2 (1-387)) was 7.9 µM and the IC50 (human PTPN1 (1-435)) was 9.05 µM.
With `O=C(NCCC1CC1)c1ccc2sc(C(F)(F)P(=O)(O)O)c(Br)c2c1` [Compound 59] the IC50 (human PTPN2 (1-387)) was 0.55 µM and the IC50 (human PTPN1 (1-435)) was 1.39 µM.
Work on `CC(C)OCCNC(=O)c1ccc2sc(C(F)(F)P(=O)(O)O)c(Br)c2c1` [Compound 60] yielded an IC50 (human PTPN2 (1-387)) of 2.53 µM and an IC50 (human PTPN1 (1-435)) of 5.72 µM.
Work on `O=C(Nc1cccc(-c2cnco2)c1)c1ccc2sc(C(F)(F)P(=O)(O)O)c(Br)c2c1` [Compound 61] yielded an IC50 (human PTPN2 (1-387)) of 0.904 µM and an IC50 (human PTPN1 (1-435)) of 0.638 µM.
`O=C(Nc1ccccc1-c1ccccc1)c1ccc2sc(C(F)(F)P(=O)(O)O)c(Br)c2c1` [Compound 62] was tested, and the IC50 (human PTPN2 (1-387)) was 1.61 µM and the IC50 (human PTPN1 (1-435)) was 2 µM.
Work on `CC1CCc2c(sc(NC(=O)c3ccc4sc(C(F)(F)P(=O)(O)O)c(Br)c4c3)c2C#N)C1` (stereo not shown) [Compound 63] yielded an IC50 (human PTPN2 (1-387)) of 0.542 µM and an IC50 (human PTPN1 (1-435)) of 0.444 µM.
`O=C(Nc1ccc(Cn2cccn2)cc1)c1ccc2sc(C(F)(F)P(=O)(O)O)c(Br)c2c1` [Compound 64] showed an IC50 (human PTPN2 (1-387)) of 1.8 µM and an IC50 (human PTPN1 (1-435)) of 1.44 µM.
`O=C(NC(c1ccccc1)c1cccnc1)c1ccc2sc(C(F)(F)P(=O)(O)O)c(Br)c2c1` (stereo not shown) [Compound 65] gave an IC50 (human PTPN2 (1-387)) of 4.85 µM and an IC50 (human PTPN1 (1-435)) of 4.3 µM.
Compound `N#Cc1cccc(-c2cccc(NC(=O)c3ccc4sc(C(F)(F)P(=O)(O)O)c(Br)c4c3)c2)c1` [Compound 66] has an IC50 (human PTPN2 (1-387)) of 0.719 µM and an IC50 (human PTPN1 (1-435)) of 0.516 µM.
`O=C(NC1CCN(Cc2ccccc2)C1)c1ccc2sc(C(F)(F)P(=O)(O)O)c(Br)c2c1` (stereo not shown) [Compound 67] showed an IC50 (human PTPN2 (1-387)) of 4.89 µM and an IC50 (human PTPN1 (1-435)) of 3.18 µM.
For `O=C(NC1CCCN(Cc2ccccc2F)C1)c1ccc2sc(C(F)(F)P(=O)(O)O)c(Br)c2c1` (stereo not shown) [Compound 68], the IC50 (human PTPN2 (1-387)) was 4.24 µM and the IC50 (human PTPN1 (1-435)) was 3.77 µM.
`C[C@@H](Cc1cccc(C(F)(F)F)c1)NC(=O)c1ccc2sc(C(F)(F)P(=O)(O)O)c(Br)c2c1` [Compound 69] showed an IC50 (human PTPN2 (1-387)) of 4.16 µM and an IC50 (human PTPN1 (1-435)) of 6.25 µM.
`CC(C)(NC(=O)c1ccc2sc(C(F)(F)P(=O)(O)O)c(Br)c2c1)c1ncn(-c2ccccc2)n1` [Compound 70] gave an IC50 (human PTPN2 (1-387)) of 8.75 µM and an IC50 (human PTPN1 (1-435)) of 9.21 µM.
Work on `CC(NC(=O)c1ccc2sc(C(F)(F)P(=O)(O)O)c(Br)c2c1)c1cccc2ccccc12` (stereo not shown) [Compound 71] yielded an IC50 (human PTPN2 (1-387)) of 3.53 µM and an IC50 (human PTPN1 (1-435)) of 3.65 µM.
For `O=C(NCCc1cnc2n(c1=O)CCCC2)c1ccc2sc(C(F)(F)P(=O)(O)O)c(Br)c2c1` [Compound 72], the IC50 (human PTPN2 (1-387)) was 3.52 µM and the IC50 (human PTPN1 (1-435)) was 2.75 µM.
Work on `Cc1cc(NC(=O)c2ccc3sc(C(F)(F)P(=O)(O)O)c(Br)c3c2)n(Cc2ccccc2)n1` [Compound 73] yielded an IC50 (human PTPN2 (1-387)) of 3.08 µM and an IC50 (human PTPN1 (1-435)) of 2.56 µM.
